Values quoted from earlier work in patent US8313770B2, “Modifying drug release in suspensions of ionic resin systems” (NEOS Therapeutics, LP, priority 2007, dated 2012).

## COc1ccccc1OCC(O)CO (stereo not shown) [Guaifenesin, 3(2-methoxyphenoxy)-1,2-propanediol]
  Solubility in water and alcohol: soluble
